Assay results reported in EP0548834B1, “Stable hexahydrate of etoposide 4'-phosphate disodium salt” (Bristol-Myers Squibb Company, priority 1991, dated 1993).

Columns and labels:
[1] = cited from earlier work
[2] = storage stability (potency / % remaining after storage); type: physicochemical

SMILES	solubility in water [1]	% Remaining ([2]; 9 weeks at 50°C, in sealed glass vials) [%]	potency remaining ([2]; 28 days at 37°C) [%]	% Remaining ([2]; 28 days at 80% Relative Humidity, 37°C) [%]	potency ([2]; storage for 63 days at 30°C) [%]
COc1cc([C@@H]2c3cc4c(cc3[C@@H](O[C@@H]3O[C@@H]5CO[C@@H](C)O[C@H]5[C@H](O)[C@H]3O)[C@H]3COC(=O)[C@H]23)OCO4)cc(OC)c1O [etoposide, Etoposide]	about 0.1 mg/ml				
COc1cc(C2c3cc4c(cc3C(OC3OC5COC(C)OC5C(O)C3O)C3COC(=O)C23)OCO4)cc(OC)c1OP(=O)([O-])[O-].O.O.O.O.O.O.[Na+].[Na+] (centres unmarked) [hexahydrate, Etoposide 4'-Phosphate Disodium salt hexahydrate]		99.4	100	100.0	> 99
